Measurements from PubChem BioAssay AID248 (DTP/NCI, 2004).
Several values for one entry are separate records, joined by “and”; a condition that tells them apart may be missing. Identical values can stand only once. Toxic doses and inconclusive results are not listed. Cut-off read from the data, not from the text of the source: active = T/C of 150% or more; inactive = T/C below 125%.

Tested on: L1210 leukemia ip in BDF1 mice, survival T/C
Assay: NCI In Vivo Anticancer Drug Screen. Data for tumor model L1210 Leukemia (intraperitoneal) in B6D2F1 (BDF1) mice
Details: endpoint: mean survival time, higher = longer survival
How it was run: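 Ratio derived from survival: compound-dosed mice over vehicle-dosed mice, all bearing a transplantable tumor.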

[1] = dose: 100.0 mg/kg/injection, schedule: Q04DX003 (ip), vehicle: saline
[2] = dose: 200.0 mg/kg/injection, schedule: Q04DX003 (ip), vehicle: saline
[3] = dose: 400.0 mg/kg/injection, schedule: Q04DX003 (ip), vehicle: saline
[4] = dose: 100.0 mg/kg/injection, schedule: Q01DX009 (ip), vehicle: Klucel (hydroxypropylcellulose) (HPC)
[5] = dose: 200.0 mg/kg/injection, schedule: Q01DX009 (ip), vehicle: Klucel (hydroxypropylcellulose) (HPC)
[6] = dose: 400.0 mg/kg/injection, schedule: Q01DX009 (ip), vehicle: Klucel (hydroxypropylcellulose) (HPC)
[7] = dose: 100.0 mg/kg/injection, schedule: Q01DX001 (ip), vehicle: saline
[8] = dose: 200.0 mg/kg/injection, schedule: Q01DX001 (ip), vehicle: saline
[9] = dose: 400.0 mg/kg/injection, schedule: Q01DX001 (ip), vehicle: saline
[10] = dose: 50.0 mg/kg/injection, schedule: Q01DX001 (ip), vehicle: saline
[11] = dose: 100.0 mg/kg/injection, schedule: Q04DX003 (ip), vehicle: saline with Tween-80
[12] = dose: 200.0 mg/kg/injection, schedule: Q04DX003 (ip), vehicle: saline with Tween-80
[13] = dose: 400.0 mg/kg/injection, schedule: Q04DX003 (ip), vehicle: saline with Tween-80
[14] = dose: 100.0 mg/kg/injection, schedule: Q04DX003 (ip), vehicle: Klucel (hydroxypropylcellulose) (HPC)
[15] = dose: 200.0 mg/kg/injection, schedule: Q04DX003 (ip), vehicle: Klucel (hydroxypropylcellulose) (HPC)
[16] = dose: 400.0 mg/kg/injection, schedule: Q04DX003 (ip), vehicle: Klucel (hydroxypropylcellulose) (HPC)
[17] = dose: 25.0 mg/kg/injection, schedule: Q04DX003 (ip), vehicle: saline
[18] = dose: 50.0 mg/kg/injection, schedule: Q04DX003 (ip), vehicle: saline
[19] = dose: 50.0 mg/kg/injection, schedule: Q01DX009 (ip), vehicle: saline with Tween-80
[20] = dose: 100.0 mg/kg/injection, schedule: Q01DX009 (ip), vehicle: saline with Tween-80
[21] = dose: 200.0 mg/kg/injection, schedule: Q01DX009 (ip), vehicle: saline with Tween-80
[22] = dose: 100.0 mg/kg/injection, schedule: Q04DX002 (ip), vehicle: Klucel (hydroxypropylcellulose) (HPC)
[23] = dose: 200.0 mg/kg/injection, schedule: Q04DX002 (ip), vehicle: Klucel (hydroxypropylcellulose) (HPC)
[24] = dose: 400.0 mg/kg/injection, schedule: Q04DX002 (ip), vehicle: Klucel (hydroxypropylcellulose) (HPC)
[25] = dose: 100.0 mg/kg/injection, schedule: Q01DX001 (ip), vehicle: Klucel (hydroxypropylcellulose) (HPC)
[26] = dose: 200.0 mg/kg/injection, schedule: Q01DX001 (ip), vehicle: Klucel (hydroxypropylcellulose) (HPC)
[27] = dose: 400.0 mg/kg/injection, schedule: Q01DX001 (ip), vehicle: Klucel (hydroxypropylcellulose) (HPC)

Measured: T/C

O=C(O)C(O)C(O)C(O)C(O)CO (configuration not stated)
inactive: [1] 106 % of control | [2] 96 % of control | [3] 96 % of control

COc1ccc(OC)c(NC(=O)Nc2cccc(C(C)=O)c2)c1
inactive: [4] 96 % of control | [5] 106 % of control | [6] 102 % of control

CC(C)C(O)CC(=O)NN (configuration not stated)
inactive: [7] 98 % of control | [8] 110 % of control | [9] 102 % of control

C/C=C/C[n+]1c(C)ccc2ccccc21
inactive: dose: 12.5 mg/kg/injection, schedule: Q01DX001 (ip), vehicle: saline 98 % of control | dose: 25.0 mg/kg/injection, schedule: Q01DX001 (ip), vehicle: saline 96 % of control | [10] 93 % of control

CC1(C)[C@H](C(=O)O)CC[C@]1(C)C(=O)O
inactive: dose: 100.0 mg/kg/injection, schedule: Q01DX001 (ip), vehicle: other 103 % of control | dose: 200.0 mg/kg/injection, schedule: Q01DX001 (ip), vehicle: other 103 % of control | dose: 400.0 mg/kg/injection, schedule: Q01DX001 (ip), vehicle: other 105 % of control

O=C(CCCl)Nc1cccc2c1C(=O)c1c(c(O)c3ccccc3c1O)C2=O
inactive: [11] 90 % of control | [12] 92 % of control | [13] 91 % of control

O=C(OCC#CC#CCOC(=O)c1ccccc1)c1ccccc1
inactive: [4] 102 % of control | [14] 94 % of control | [5] 95 % of control | [15] 96 % of control | [6] 104 % of control | [16] 89 % of control

CCOP(=O)(OCC)C(c1ccccc1)C(c1ccccc1)c1ccccc1 (configuration not stated)
inactive: dose: 100.0 mg/kg/injection, schedule: Q04DX003 (ip), vehicle: other 97 % of control | dose: 200.0 mg/kg/injection, schedule: Q04DX003 (ip), vehicle: other 93 % of control | dose: 400.0 mg/kg/injection, schedule: Q04DX003 (ip), vehicle: other 101 % of control

O=C(O)c1ccc2ccc3cccnc3c2n1
inactive: [11] 96 % of control | [12] 113 % of control

CC(C)(N)Cc1ccc(Cl)cc1
inactive: [17] 111 % of control | [18] 106 % of control | [1] 104 % of control | [2] 92 % of control

C/C=C(/C#N)c1ccccc1
inactive: [19] 107 % of control | [20] 106 % of control | [11] 90 % of control | [21] 100 % of control | [12] 96 % of control

COCCNC(=O)SCCC(=O)O
inactive: [7] 96 % of control | [8] 100 % of control | [9] 100 % of control

O=C(O)C1=CCCc2ccc3ccccc3c21
inactive: dose: 75.0 mg/kg/injection, schedule: Q04DX003 (ip), vehicle: saline 100 % of control | [4] 96 % of control | dose: 150.0 mg/kg/injection, schedule: Q04DX003 (ip), vehicle: saline 100 % of control | [5] 102 % of control | dose: 300.0 mg/kg/injection, schedule: Q04DX003 (ip), vehicle: saline 97 % of control

CCOC(=O)/C=C(C)/C=C/C1=C(C)CCCC1(C)C
inactive: [11] 102 % of control | [12] 96 % of control | [13] 108 % of control

CC1CP(=O)(Cc2ccccc2)C(C)(c2ccccc2)C1=O (configuration not stated)
inactive: [14] 93 % of control | [15] 100 % of control | [16] 100 % of control

Fc1c(F)c(F)c(P(c2ccccc2)c2ccccc2)c(F)c1F
inactive: [22] 95 % of control | [23] 95 % of control | [24] 111 % of control

N#CC1CC(c2ccccc2)Nc2ccccc2N1 (configuration not stated)
inactive: [14] 94 % of control | [15] 98 % of control | [16] 96 % of control

CCCCCCCC(=O)Oc1ccc(C)cc1
inactive: dose: 100.0 mg/kg/injection, schedule: Q01DX Z (ip), vehicle: carboxymethylcellulose (CMC) 103 % of control | dose: 150.0 mg/kg/injection, schedule: Q01DX Z (ip), vehicle: carboxymethylcellulose (CMC) 106 % of control | dose: 225.0 mg/kg/injection, schedule: Q01DX Z (ip), vehicle: carboxymethylcellulose (CMC) 97 % of control

O=C(COc1ccc(Cl)cc1Cl)OCCOc1ccc(Cl)cc1
inactive: [22] 97 % of control | [23] 97 % of control | [24] 118 % of control

N[C@@H](Cc1ccc(O)c(O)c1)C(=O)O
inactive: dose: 25.0 mg/kg/injection, schedule: Q01DX009 (ip), vehicle: saline 101 % of control | [17] 94 % of control | [10] 87 % of control | dose: 50.0 mg/kg/injection, schedule: Q01DX009 (ip), vehicle: saline 100 % of control and 105 % of control | [18] 103 % of control and 105 % of control | [7] 94 % of control | dose: 100.0 mg/kg/injection, schedule: Q01DX009 (ip), vehicle: saline 92 % of control and 97 % of control | [1] 110 % of control | [8] 113 % of control | dose: 200.0 mg/kg/injection, schedule: Q01DX009 (ip), vehicle: saline 97 % of control and 105 % of control | [2] 98 % of control and 105 % of control | [9] 94 % of control | dose: 400.0 mg/kg/injection, schedule: Q01DX009 (ip), vehicle: saline 108 % of control and 112 % of control | [3] 94 % of control and 97 % of control

COC(=O)COC1=NCC([N+](=O)[O-])CC1 (configuration not stated)
inactive: [14] 100 % of control | [15] 107 % of control | [16] 102 % of control

Brc1ccc2c(c1)-c1cc(Br)ccc1C2
inactive: dose: 50.0 mg/kg/injection, schedule: Q04DX002 (ip), vehicle: saline with Tween-80 95 % of control | dose: 100.0 mg/kg/injection, schedule: Q04DX002 (ip), vehicle: saline with Tween-80 100 % of control | dose: 200.0 mg/kg/injection, schedule: Q04DX002 (ip), vehicle: saline with Tween-80 103 % of control | dose: 400.0 mg/kg/injection, schedule: Q04DX002 (ip), vehicle: saline with Tween-80 95 % of control

O=P(O)(O)CN(CP(=O)(O)O)CP(=O)(O)O
inactive: [7] 101 % of control | [8] 94 % of control | [9] 89 % of control

O=C1CC(C(F)(F)F)(C(F)(F)F)O1
inactive: dose: 100.0 mg/kg/injection, schedule: Q04DX002 (ip), vehicle: other 120 % of control | dose: 200.0 mg/kg/injection, schedule: Q04DX002 (ip), vehicle: other 102 % of control | dose: 400.0 mg/kg/injection, schedule: Q04DX002 (ip), vehicle: other 102 % of control

CCCc1c(N)nc(N)nc1C(=O)O
inactive: [25] 94 % of control | [4] 100 % of control | [26] 94 % of control | [5] 109 % of control | [27] 92 % of control | [6] 86 % of control

c1ccc(C2SC(c3ccccc3)SC(c3ccccc3)S2)cc1 (configuration not stated)
inactive: [7] 90 % of control | [8] 88 % of control | [9] 92 % of control

O=S1(=O)CC(c2cccc3ccccc23)Nc2ccccc21 (configuration not stated)
inactive: [25] 97 % of control | [4] 95 % of control | [14] 95 % of control | [26] 93 % of control | [5] 95 % of control | [15] 90 % of control | [27] 89 % of control | [6] 94 % of control | [16] 97 % of control

CCCC(=O)c1c(O)cc(O)cc1O
inactive: dose: 100.0 mg/kg/injection, schedule: Q01DX001 (ip), vehicle: carboxymethylcellulose (CMC) 98 % of control | dose: 200.0 mg/kg/injection, schedule: Q01DX001 (ip), vehicle: carboxymethylcellulose (CMC) 96 % of control | dose: 400.0 mg/kg/injection, schedule: Q01DX001 (ip), vehicle: carboxymethylcellulose (CMC) 93 % of control

O=C(O)C1CCCCC1C(=O)Nc1ccc(Cl)cc1 (configuration not stated)
inactive: [19] 88 % of control | [20] 87 % of control | [11] 96 % of control | [21] 98 % of control | [12] 97 % of control
